Experimental data reported in article PMC12162873, “Modulating phosphatase DUSP22 with BML-260 ameliorates skeletal muscle wasting via Akt independent JNK-FOXO3a repression” (EMBO Molecular Medicine, 2025).
Values joined by “and” are separate entries in the source; they are usually repeats but may differ in a detail not shown here. Equal values may be shown once. “Also recorded” adds a separate entry of the source. Read-outs that look alike come from different tables or passages of the source. Values belong to the molecule of their own block, whether it stands above or below them.

Tests used:
[1] = Pharmacokinetics analysis, plasma (LC-MS/MS); type: in vivo, mouse; set-up: peak plasma concentration after injection: unit not given here; conditions: for Plasma Conc. / Plasma Conc., Mean / concentration at 0.25 h / concentration at 0.5 h / concentration at 1.5 h / concentration at 2 h / concentration at 8 h: 5 mg/kg (IP); for concentration at 0.25 h / concentration at 0.5 h / concentration at 1.5 h / concentration at 2 h / concentration at 8 h: intraperitoneal, 5 mg/kg
Experimental: Assessment of BML-260 pharmacokinetics (PK) was carried out by the company Chaon, Yongin-si, Republic of Korea. BML-260 was administered intraperitoneally at a dose of 5 mg/kg in an injection volume of 10 mL/kg. A total of 21 6-week-old male C57BL/6J mice were divided into two groups as follows: 1) PK (plasma) group (3 mice) and 2) PK (TA muscle) group (18 mice across 6 time points).
[…] Blood was centrifuged to obtain plasma that was then stored at −80 °C. For the PK (TA muscle) group, mice were euthanized at 0.5, 1, 1.5, 2, 6, and 12 h post-administration. The TA muscle was weighed and stored at −80 °C.
BML-260 levels in plasma and tissue samples were analyzed with liquid chromatography-tandem mass spectrometry (LC-MS/MS) using an Agilent 1200 HPLC system coupled with an AB Sciex 4000 QTrap MS/MS (Agilent Technologies, CA, USA). Quantification limits were determined based on a signal-to-noise ratio greater than 10, with precision below 20% and accuracy between 80% and 120%.

C2C12 murine myotubes = assay: RNA Seq of DUSP22 expression in Dex-treated C2C12 myotubes; type: cell-based, mouse; conditions: C2C12 myotubes treated with Dex, three clusters of n = 3, replicates
Experimental: (A) DUSP22 expression in aged individuals (over 70 years, n = 15) and aged individuals diagnosed with sarcopenia (over 70 years, n = 18), p = 0.0009 (obtained from the Singapore Sarcopenia Study; (GEO accession no. GSE111016 (Migliavacca et al, [2019])). (B) DUSP22 expression in C2C12 murine myotubes treated with vehicle or dexamethasone (Dex) to induce atrophy (n = 3 each) Custer 1 (p = 0.024), Cluster 2 (p = 0.13), Cluster 3 (p = 0.0246). Expression was measured using RNA Seq. TPM=transcript per million. (C) qPCR analysis of DUSP22 expression in four models of muscle atrophy: (1) C2C12 myotubes treated with Dex (n = 5), p = 7.67E−05, (2) the TA muscle of C57BL/6 mice treated with Dex (n = 4), p = 0.09, (3) the TA muscle of young (5 months-old, n = 9) and geriatric (27 months-old, n = 8) C57BL/6 mice, p = 0.0324, (4) the TA of C57BL/6 mice after hind limb immobilization (n = 3), p = 0.018. (D) qPCR of DUSP22 expression in C2C12 myoblasts transfected with a DUSP22 CRISPR activation plasmid (DUSP22^endoOE) or control plasmid (CON^endoOE) (n = 3), p = 0.0022. (E) Fast myosin (MYH2) immunocytochemistry of CON^endoOE and DUSP22^endoOE myoblasts after 96 h culture in DM (scale bar = 100 µm). (F) Fusion index (n = 6). (G) Differentiation index (n = 6), p = 9.91E−09. […]

- Plasma Conc. ([1]; 0.25 h, individual animals): 15.310 ng/mL and 14.890 ng/mL
- Plasma Conc. ([1]; 0.5 h, individual animals): 9.450 ng/mL and 9.888 ng/mL
- Plasma Conc. ([1]; 1.5 h, individual animals): 6.230 ng/mL and 6.772 ng/mL
- Plasma Conc. ([1]; 2 h, individual animals): 5.288 ng/mL and 4.936 ng/mL
- Plasma Conc. ([1]; 8 h, individual animals): 0.232 ng/mL and 0.333 ng/mL
- Plasma Conc. ([1]; 12 h, individual animals): BQL
- Plasma Conc., Mean ([1]; 12 h, n = 3): BQL
- Plasma Conc. ([1]; 24 h, individual animals): BQL
- Plasma Conc., Mean ([1]; 24 h, n = 3): BQL
- time by which plasma concentration is undetectable ([1]; 5 mg/kg IP, as read by referee #2): ~ 8 hours
- peak plasma concentration after injection ([1]; 5 mg/kg IP, as read by referee #2 from the PK figure): 16
- concentration at 0.25 h ([1]; male, C57BL/6J, mouse, plasma, 0.25 h, individual animals, read-out: Plasma Conc.): 18.1 ng/mL
- concentration at 0.25 h ([1]; male, C57BL/6J, mouse, plasma, 0.25 h, n = 3, read-out: Plasma Conc., Mean): 16.1 ng/mL
- concentration at 0.5 h ([1]; male, C57BL/6J, mouse, plasma, 0.5 h, individual animals, read-out: Plasma Conc.): 11.4 ng/mL
- concentration at 0.5 h ([1]; male, C57BL/6J, mouse, plasma, 0.5 h, n = 3, read-out: Plasma Conc., Mean): 10.3 ng/mL
- concentration at 1.5 h ([1]; male, C57BL/6J, mouse, plasma, 1.5 h, individual animals, read-out: Plasma Conc.): 6.66 ng/mL
- concentration at 1.5 h ([1]; male, C57BL/6J, mouse, plasma, 1.5 h, n = 3, read-out: Plasma Conc., Mean): 6.55 ng/mL
- concentration at 2 h ([1]; male, C57BL/6J, mouse, plasma, 2 h, individual animals, read-out: Plasma Conc.): 4.85 ng/mL
- concentration at 2 h ([1]; male, C57BL/6J, mouse, plasma, 2 h, n = 3, read-out: Plasma Conc., Mean): 5.03 ng/mL
- concentration at 8 h ([1]; male, C57BL/6J, mouse, plasma, 8 h, individual animals, read-out: Plasma Conc.): 0.248 ng/mL
- concentration at 8 h ([1]; male, C57BL/6J, mouse, plasma, 8 h, n = 3, read-out: Plasma Conc., Mean): 0.271 ng/mL
- half-life ([1]; male, C57BL/6J, mouse, plasma, 5 mg/kg IP, as read by referee #2): ~60 min
SMILES: O=C(O)c1ccc(N2C(=O)C(=Cc3ccccc3)SC2=S)cc1 (stereo in doubt) [BML-260]
- detection in plasma after IP delivery ([1]; 5 mg/kg IP): detectable in the plasma immediately after intraperitoneal; also recorded: could be detected in the plasma

SMILES: C[C@@H]1C[C@H]2[C@@H]3CCC4=CC(=O)C=C[C@]4(C)[C@@]3(F)[C@@H](O)C[C@]2(C)[C@@]1(O)C(=O)CO [Dex, dexamethasone]
- DUSP22 expression, RNA Seq (C2C12 murine myotubes): 18.5715 TPM and 15.8769 TPM and 15.1133 TPM and 25.7965 TPM and 17.3247 TPM and 20.9604 TPM and 20.6804 TPM and 15.7123 TPM and 15.7246 TPM
